The test system of series [1] is E. coli ATCC 25922. The format is cell-based, Escherichia coli. Particulars: mean of triplicate. On the procedure:
(§1) The antibacterial activity of the peptoids was evaluated against gram‐positive (Staphylococcus aureus, ATCC 25 923) and gram‐negative (Escherichia coli, ATCC 25 922) bacteria. […] The MIC of each peptoid was determined using a broth dilution assay. For each assay, the primary culture of either S. aureus or E. coli was grown overnight in cation‐adjusted Mueller Hinton broth 2 (MHB2) media at 37 °C with shaking. A secondary culture was prepared the next day, grown for 3–4 h, and then diluted in MHB2 media with a final concentration of 0.001% acetic acid and 0.02% bovine serum albumin to obtain a calculated optical density (OD) of 0.001. This corresponded to ≈2–5 × 10^5 colony‐forming units (CFU mL^−1) of bacteria. Using 96‐well polypropylene plates (Eppendorf, Hamburg, Germany), 100 µL of 2–5 × 10^5 CFU mL^−1 bacteria were added in triplicate for each peptoid. Each peptoid was assayed at six different concentrations in two‐fold serial dilutions. The maximum peptoid concentration was 25 µM. […] The MIC value determination was performed in triplicate. The MIC was defined as the lowest peptoid concentration that prevented turbidity during visual inspection.

Another series deals with S. aureus ATCC 25923. The series is classed as cell-based, Staphylococcus aureus. On the procedure: as §1
Another series deals with rat erythrocytes. The series can be described thus: Hemolysis assay. The series is classed as cell-based. The gist of the method: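 Washed Sprague-Dawley rat erythrocytes (10% suspension in PBS pH 7.4) mixed with peptoids (0–100 µM), 60 min at 37 °C; supernatant A540 expressed as % of 1% Triton X-100 lysis. HC10/HC50 are concentrations giving 10%/50% hemolysis; Hmax is hemolysis at 100 µM.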

Series [2] deals with MRC-5 human lung fibroblast cells. The format is cell-based. Particulars: Table S3, counter-ion exchange series; MTS assay, 24 h. On the procedure: 4. Cell culture and cytotoxicity test using MTS assay
(Seoul, South Korea), human keratinocytes (HaCaT) were provided by the Skin Research Institute R&D Center of Amore Pacific Company (Yongin, South Korea). All cells were grown in Dulbecco's modified Eagle’s medium (DMEM) supplemented with 10% fetal bovine serum at 37 °C in an atmosphere containing 5% CO2. The 3-(4,5-dimethylthiazol-2- […]
assays were used to determine the effects of peptoids on cell growth.[4] Aliquots (100 µL) of media containing 1.3×10^4 MRC-5 cells/mL or 3×10^4 HaCaT cells/mL were distributed into each well of a 96-well plate (Eppendorf, Hamburg, Germany). The cells were allowed to attach and were grown in a humidified atmosphere containing 5% CO2 at 37 °C for 24 h.
When the cell density reached approximately 70% confluency, the medium was replaced with serial dilutions of the peptoid stock in DMEM and incubated for an additional 24 h. At this point, 20 µL of the CellTiter 96 aqueous non-radioactive cell proliferation assay reagent (Promega, Madison, WI, USA), which contains the tetrazolium compound, was added to each well. Plates were incubated for 4 h at 37 °C to allow time for metabolism. The MTS-formazan products in viable cells were measured at 490 nm using a microplate reader, and the percentage of cell viability (%) was calculated by comparing readings to the values of untreated wells. Percentage values of cell viability were calculated as A/(A control)×100, where A is the absorbance of the test well and A control is the average absorbance of wells containing untreated cells. […]
(In general: Tetrazolium assays rely on reduction of a dye to a coloured formazan, in cell work by metabolically active cells.)

The nature of series [3]: Analytical reversed-phase HPLC elution (hydrophobicity). The format is physicochemical. Particulars: Table 1; analytical RP-HPLC, SunFire C18 […] 250 mm, water/ACN + 0.1% TFA, 5% B 2 min then linear to 100% B over 30 min, 1 mL/min, UV 220 nm; used as measure of hydrophobicity. The method, boiled down: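 Retention time (tR) reflects hydrophobicity, with detection at 220 nm. Elution used a 5–100% acetonitrile linear gradient over 30 min after a 2 min hold at 5%, then 5 min at 100%, with both phases containing 0.1% TFA. Column was an analytical C18 (4.6 × 250 mm, 5 μm) run at 1 mL/min.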

The subject of a further series is E. faecium KCTC 13225. The series is classed as cell-based. Particulars: KCTC 13225.
In a further series the test system is E. faecalis KCTC 3511. The series is classed as cell-based. The conditions noted are these: KCTC 3511.
In the next series the test system is S. typhimurium SL 1344. The format is cell-based. The conditions noted are these: SL 1344.
Series [4] has as its system E. coli ATCC 25922. The series can be described thus: NPN uptake assay (outer membrane). The format is cell-based. Particulars: E. coli ATCC 25922, 5 mM HEPES pH 7.2, 10 µM NPN, fluorescence. Here is the method: 14. In vitro biological assays […]
The ability of peptoids to increase the permeability of the outer membrane of Gram-negative bacteria was determined by measuring the incorporation of the NPN fluorescent dye into the outer membrane of E. coli ATCC 25922. Bacterial cells were suspended to a final concentration of OD600 = 0.05 in 5 mM HEPES buffer, pH 7.2, containing 5 mM KCN. Then […]
200 μL NPN dye was added to wells of a 96 well plate to produce a final concentration of 10 μM, and the background fluorescence was recorded (λex = 350 nm, λem = 420 nm). Aliquots of peptoids were added to the well, and fluorescence was recorded as a function of time until there was no further increase in fluorescence. Increases of the permeability of the outer membrane after the addition of peptoids was reflected by increased fluorescence values as a result of NPN incorporation into the membrane. […]

The test system of a further series is E. coli ML-35 cells. Kind of series: ONPG hydrolysis assay (inner membrane). The format is cell-based. The conditions noted are these: 1.5 mM ONPG, 10 mM sodium phosphate pH 7.4, absorbance 405 nm. Here is the method: The permeability of the inner membrane was determined using E. coli ML-35 cells […]
The intact bacterial inner membrane is non-permeable to o-nitrophenyl-β-D-galactopyranoside (OPNG), a chromogenic substrate of the β-galactosidase.
Following damage to the inner membrane, OPNG enters the cells and is metabolized by β-galactosidase creating a chromogenic […]. E. coli cells were washed in 10 mM sodium phosphate (pH 7.4) containing 100 mM NaCl and resuspended in the same buffer at a final concentration of OD600 = 0.5 containing 1.5 mM ONPG. The hydrolysis of ONPG and generation of o-nitrophenol over time were monitored as absorbance change at 405 nm following the addition of peptoids. […]

The mark [5] stands for this setting: Table S3, counter-ion exchange series (TFA, HCl, AcOH salts).
[6] abbreviates: Table S3, counter-ion exchange series, mean of triplicate.
Where [7] appears, read: Table S3, counter-ion exchange series, 10% hemolysis in rat erythrocytes, mean of triplicate.
[8] abbreviates: Table S3, counter-ion exchange series, 50% hemolysis in rat erythrocytes, mean of triplicate.
Setting [9] is: Table S3, counter-ion exchange series, hemolysis at 100 µM.
Where [10] appears, read: Table S2, broth dilution, MHB2, 37 °C 24 h, max 25 µM.
Where [11] appears, read: Table S2, broth dilution, MHB2, 37 °C 24 h, max 25 µM, mean of triplicate.

Molecules are shown by their SMILES. Converted amounts (≈) assume the structure as drawn. Structures can show the parent of a compound that is named as a salt. Where two headings read alike, the source gives them in different places. Square brackets hold non-standard residues; d marks the D form. Peptide text beside a SMILES is read from it. Nspe = C[C@H](NCC(=O)O)c1ccccc1; Nlys = NCCCCNCC(=O)O

In the case of `C[C@@H](c1ccccc1)N(CC(N)=O)C(=O)CN(C(=O)CN(CCCCN)C(=O)CN(C(=O)CN(C(=O)CN(CCCCN)C(=O)CN(C(=O)CN(C(=O)CN(CCCCN)C(=O)CN(C(=O)CN(C(=O)CNCCCCN)[C@@H](C)c1ccccc1)[C@@H](C)c1ccccc1)[C@@H](C)c1ccccc1)[C@@H](C)c1ccccc1)[C@@H](C)c1ccccc1)[C@@H](C)c1ccccc1)[C@@H](C)c1ccccc1` [1-AcOH] (H-[Nlys][Nspe][Nspe][Nlys][Nspe][Nspe][Nlys][Nspe][Nspe][Nlys][Nspe][Nspe]-NH2), the “MIC E. coli ATCC25922” value in the series with E. coli ATCC 25922 [1] (setting [5]) was found to be 12.5 µM. For the same compound, in the series on S. aureus ATCC 25923 (setting [6]), the “MIC S. aureus ATCC25923” value turned out to be 3.1 µM (≈ 5.64 µg/mL). The compound further registered an HC10 in the series with rat erythrocytes (setting [7]) of 25.0 µM. In the series with rat erythrocytes (setting [8]), this compound showed an HC50 of 78.6 µM. In addition, the “Hmax (100 µM)” value in the series with rat erythrocytes (setting [9]) is 58.2±1.7%. Besides, the “LC50 MRC-5” value in [2] is reported as 8.6 µM.
For the compound `C[C@@H](c1ccccc1)N(CC(N)=O)C(=O)CN(C(=O)CN(CCCCN)C(=O)CN(C(=O)CN(C(=O)CN(CCCCN)C(=O)CN(C(=O)CN(C(=O)CN(CCCCN)C(=O)CN(C(=O)CN(C(=O)CNCCCCN)[C@@H](C)c1ccccc1)[C@@H](C)c1ccccc1)[C@@H](C)c1ccccc1)[C@@H](C)c1ccccc1)[C@@H](C)c1ccccc1)[C@@H](C)c1ccccc1)[C@@H](C)c1ccccc1` [1-HCl] (H-[Nlys][Nspe][Nspe][Nlys][Nspe][Nspe][Nlys][Nspe][Nspe][Nlys][Nspe][Nspe]-NH2), the “MIC E. coli ATCC25922” value in the series on E. coli ATCC 25922 [1] (setting [5]) is 6.3 µM. Besides, the “MIC S. aureus ATCC25923” value in the series with S. aureus ATCC 25923 (setting [6]) is listed as 1.6 µM. The same compound yielded an HC10 in the series with rat erythrocytes (setting [7]) of 27.6 µM. Also, the HC50 in the series with rat erythrocytes (setting [8]) is 83.3 µM. In addition, the “Hmax (100 µM)” value in the series on rat erythrocytes (setting [9]) was determined as 61.5±0.9%. The “LC50 MRC-5” value in series [2] was 11.8 µM.
For the compound `C[C@@H](c1ccccc1)N(CC(N)=O)C(=O)CN(C(=O)CN(CCCCN)C(=O)CN(C(=O)CN(C(=O)CN(CCCCN)C(=O)CN(C(=O)CN(C(=O)CN(CCCCN)C(=O)CN(CCc1c[nH]c2ccccc12)C(=O)CN(C(=O)CNCCCCN)[C@@H](C)c1ccccc1)[C@@H](C)c1ccccc1)[C@@H](C)c1ccccc1)[C@@H](C)c1ccccc1)[C@@H](C)c1ccccc1)[C@@H](C)c1ccccc1` [peptoid 10], the “HPLC elution (%ACN)” value in series [3] was 54.9 %ACN. Also, the “MIC E. coli ATCC25922” value turned out to be 3.1 µM (≈ 5.76 µg/mL) against E. coli ATCC 25922 [1] (setting [10]) and 3.1 µM with E. coli ATCC 25922 [1] (setting [5]). In addition, the “MIC S. aureus ATCC25923” value turned out to be 0.8 µM (≈ 1.49 µg/mL) against S. aureus ATCC 25923 (ATCC 25923) and 1.6 µM (≈ 2.97 µg/mL) in the series on S. aureus ATCC 25923 (setting [11]). In addition, the “H max (100 µM)” value with rat erythrocytes is 108.1 ± 1.7%. In addition, in the series on rat erythrocytes, the “Hmax (100 µM)” value is given as 101.4±5.1%. For the same compound, the HC10 worked out at 6.6 µM in the series on rat erythrocytes (pH 7.4) and 6.9 µM in the series with rat erythrocytes (red cells of rat). In addition, the HC50 in the series with rat erythrocytes (pH 7.4) amounted to 17.0 µM; in the series on rat erythrocytes (red cells of rat), 25.8 µM. Also, the “MIC E. faecium KCTC 13225” value with E. faecium KCTC 13225 is recorded as 12.5 µM (≈ 23.2 µg/mL). The “MIC E. faecalis KCTC 3511” value against E. faecalis KCTC 3511 came to 12.5 µM (≈ 23.2 µg/mL). In addition, the “MIC S. typhimurium SL 1344” value against S. typhimurium SL 1344 came out at 12.5 µM (≈ 23.2 µg/mL). In addition, the “outer membrane disruption (NPN uptake)” value in the series with E. coli ATCC 25922 [4] is recorded as “strongly disrupted”. Also, the “inner membrane disruption (ONPG hydrolysis)” value with E. coli ML-35 cells is recorded as “strongly disrupted”.
Take `C[C@@H](c1ccccc1)N(CC(N)=O)C(=O)CN(C(=O)CN(CCCCN)C(=O)CN(C(=O)CN(C(=O)CN(CCCCN)C(=O)CN(C(=O)CN(C(=O)CN(CCCCN)C(=O)CN(CCc1c[nH]c2ccccc12)C(=O)CN(CCc1c[nH]c2ccccc12)C(=O)CNCCCCN)[C@@H](C)c1ccccc1)[C@@H](C)c1ccccc1)[C@@H](C)c1ccccc1)[C@@H](C)c1ccccc1)[C@@H](C)c1ccccc1` [peptoid 14]: in [3], the “HPLC elution (%ACN)” value was 55.6 %ACN. Further, the “MIC E. coli ATCC25922” value turned out to be 3.1 µM (≈ 5.88 µg/mL) against E. coli ATCC 25922 [1] (setting [10]) and 3.1 µM with E. coli ATCC 25922 [1] (setting [5]). In addition, the “MIC S. aureus ATCC25923” value with S. aureus ATCC 25923 (ATCC 25923) is recorded as 1.6 µM (≈ 3.04 µg/mL); against S. aureus ATCC 25923 (setting [11]), less than 0.8 µM. The “H max (100 µM)” value with rat erythrocytes is listed as 90.0 ± 7.3%. In addition, the “Hmax (100 µM)” value with rat erythrocytes is on record as 112.9±2.1%. In the series on rat erythrocytes (red cells of rat), this compound showed an HC10 of 12.5 µM. For the same compound, the HC50 with rat erythrocytes (red cells of rat) worked out at 21.1 µM. Moreover, the “MIC E. faecium KCTC 13225” value with E. faecium KCTC 13225 is less than 0.8 µM. The “MIC E. faecalis KCTC 3511” value in the series on E. faecalis KCTC 3511 was 1.6 µM (≈ 3.04 µg/mL). In the series on S. typhimurium SL 1344, the “MIC S. typhimurium SL 1344” value was determined as 12.5 µM (≈ 23.7 µg/mL). Besides, in the series on E. coli ATCC 25922 [4], the “outer membrane disruption (NPN uptake)” value is reported as “strongly disrupted”. For the same compound, in the series with E. coli ML-35 cells, the “inner membrane disruption (ONPG hydrolysis)” value is on record as “strongly disrupted”.

The HC50 is the concentration that lyses half of the red blood cells.

The record behind these values is PMC10460844, “Real‐Time Monitoring of Multitarget Antimicrobial Mechanisms of Peptoids Using Label‐Free Imaging with Optical Diffraction Tomography” (Advanced Science, 2023).
